According to US12691127B2, “Use of glucocorticoid receptor antagonists in combination with glucocorticoids to treat adrenal insufficiency” (Corcept Therapeutics, Inc., priority 2015, dated 2026):

Experiments:
HPA axis = assay: Case report: recovery of the HPA axis (ACTH, cortisol, DHEA levels) in a patient with secondary adrenal insufficiency; format: in vivo, human
Description: The patient is a person who developed depression for which they were placed on various psychotropic medications. They developed progressive malaise, 25 pound weight gain, muscle weakness, easing bruising, hypertension and foot stress fracture. They underwent screening DEXA bone density scan because of their personal history of fracture and a family history of advanced osteoporosis and genetically confirmed hypophosphatasia in their parent. The DEXA bone density scan disclosed a T-score of −3.4 at the lumbar spine and −3.1 at the hip. […] Further testing for secondary causes of osteoporosis included 24-hour urinary free cortisol which was markedly elevated at 499 mcg/day (range 10-80 mcg/day). Plasma ACTH level was undetectable. […], they underwent uncomplicated right laparoscopic adrenalactomy and histopathology confirmed a 3.7 cm adrenal cortical adenoma. The patient underwent a unilateral procedure, leaving one adrenal gland intact. Post-operatively the patient was placed on hydrocortisone replacement, initially at a dose of 40 mg/day given in divided doses and gradually tapered to 30 mg/day over the following several months. One year after their adrenalectomy, their hydrocortisone had been further tapered to 15 mg/day, which remained their maintenance dose. During the ensuing 6 years after their adrenalectomy, the patient generally felt unwell with symptoms of episodic nausea, headaches, lightheadedness, mood swings and generalized weakness. Quarterly measurement of serum cortisol and plasma ACTH levels (performed after holding hydrocortisone for 18 hours) consistently yielded undetectable values for both parameters. During this 6 year period, they had one pregnancy, occurring 3 years after adrenalectomy and progressing to full-term delivery of a healthy child. They had two other hospitalizations (separated by 4 years) for near-syncope, malaise, nausea and vomiting (but without hypoglycemia or hypotension). Both episodes were treated with 48-hours of intravenous stress-doses of glucocorticoids and saline, followed by improvement of their symptoms and subsequent tapering of glucocorticoids to a replacement dose of hydrocortisone 15 mg/day. The failure of the HPA axis to recover six years after adrenalectomy (despite physiological steroid dosing) prompted magnetic resonance imaging of the sella to rule out structural abnormalities of the hypothalamus, infundibulum and pituitary. This MRI was unremarkable. At that time, after a balanced discussion of risk and benefit, mifepristone 150 mg every other day was initiated and the dose of hydrocortisone 15 mg/day was continued. Over the ensuing five months, the dose of mifepristone was gradually escalated to 300 mg every other day, then 300 mg daily and finally maintained at 600 mg daily. […] The dose of hydrocortisone was lowered and ultimately stopped 8 months after initiation of mifepristone. […] The pruritis was tolerable and managed with over the counter anti-histamines. At no point during treatment with mifepristone did the patient develop signs or symptoms of adrenal insufficiency. Their menses returned 3 weeks after discontinuation of mifepristone. [table] […] Recovery of the patient's HPA axis was achieved. The patient's ACTH and cortisol levels increased in response to the drug treatment.

[1] = Case report: tolerability and side effects of mifepristone in the patient; format: in vivo, human
Method: The failure of the HPA axis to recover six years after adrenalectomy (despite physiological steroid dosing) prompted magnetic resonance imaging of the sella to rule out structural abnormalities of the hypothalamus, infundibulum and pituitary. This MRI was unremarkable. At that time, after a balanced discussion of risk and benefit, mifepristone 150 mg every other day was initiated and the dose of hydrocortisone 15 mg/day was continued. Over the ensuing five months, the dose of mifepristone was gradually escalated to 300 mg every other day, then 300 mg daily and finally maintained at 600 mg daily. […] The dose of hydrocortisone was lowered and ultimately stopped 8 months after initiation of mifepristone. […] The pruritis was tolerable and managed with over the counter anti-histamines. At no point during treatment with mifepristone did the patient develop signs or symptoms of adrenal insufficiency. Their menses returned 3 weeks after discontinuation of mifepristone.

[2] = Month 1, Mife 150 mg TIW, HC 15 mg
[3] = Month 3, Mife 300 mg TIW, HC 15 mg
[4] = Month 4, Mife 300 mg daily, HC 15 mg
[5] = Month 5, Mife 600 mg daily, HC 15 mg
[6] = Month 6, Mife 600 mg daily, HC 10 mg
[7] = Month 10, Mife 0, HC 0 (after completion of treatment)
[8] = Month 11, Mife 0, HC 0 (after completion of treatment)
[9] = patient, mifepristone up to 600 mg daily
[10] = 6 years after adrenalectomy on hydrocortisone replacement alone (15 mg/day), after holding hydrocortisone for 18 hours
[11] = Month 0, Mife dose 0, HC dose 15 mg (before mifepristone)

CC#C[C@]1(O)CC[C@H]2[C@@H]3CCC4=CC(=O)CCC4=C3[C@@H](c3ccc(N(C)C)cc3)C[C@@]21C [mifepristone, 17-β-hydrox-11-β-(4-dimethyl-aminophenyl)17-α-(1-propynyl)estra-4,9-dien-3-one]
ACTH (HPA axis; [2]): 15 pg/mL | Cortisol (HPA axis; [2]): <1 µg/dL | DHEA (HPA axis; [2]): <0.05 ng/mL | ACTH (HPA axis; [3]): 18 pg/mL | Cortisol (HPA axis; [3]): <1 µg/dL | DHEA (HPA axis; [3]): <0.05 ng/mL | ACTH (HPA axis; [4]): 60 pg/mL | Cortisol (HPA axis; [4]): 3.6 µg/dL | DHEA (HPA axis; [4]): <0.05 ng/mL | ACTH (HPA axis; [5]): 78 pg/mL | Cortisol (HPA axis; [5]): 4.6 µg/dL | DHEA (HPA axis; [5]): <0.05 ng/mL | ACTH (HPA axis; [6]): 173 pg/mL | Cortisol (HPA axis; [6]): 10.5 µg/dL | DHEA (HPA axis; [6]): <0.05 ng/mL | ACTH (HPA axis; Month 8, Mife 300 mg TIW, HC 0): 126 pg/mL | Cortisol (HPA axis; Month 8, Mife 300 mg TIW, HC 0): 13.6 µg/dL | DHEA (HPA axis; Month 8, Mife 300 mg TIW, HC 0): <0.05 ng/mL | ACTH (HPA axis; [7]): 26 pg/mL | Cortisol (HPA axis; [7]): 13.5 µg/dL | DHEA (HPA axis; [7]): <0.05 ng/mL | ACTH (HPA axis; [8]): 45 pg/mL | Cortisol (HPA axis; [8]): 15.3 µg/dL | DHEA (HPA axis; [8]): 0.053 ng/mL | levels of ACTH and cortisol after completion of the treatment (HPA axis; after completion of hydrocortisone and mifepristone treatment): Normal levels of ACTH and cortisol were maintained | treatment outcome of secondary adrenal insufficiency (HPA axis; co-administration of hydrocortisone and mifepristone): successfully treated | recovery of the HPA axis (HPA axis; mifepristone escalated 150 mg every other day to 600 mg daily, with hydrocortisone 15 mg/day): rapid recovery of the HPA axis was noted | time to rise in ACTH into the supra-normal range after starting mifepristone (HPA axis; with hydrocortisone 15 mg/day): 4 months | signs or symptoms of adrenal insufficiency during treatment ([1]; during treatment with mifepristone): At no point | time to return of menses after discontinuation of mifepristone ([1]; human, in vivo): 3 weeks | side effects [1, 9]: amenorrhea and pruritis | tolerability [1, 9]: tolerated mifepristone remarkably well

C[C@]12CCC(=O)C=C1CC[C@@H]1[C@@H]2[C@@H](O)C[C@@]2(C)[C@H]1CC[C@]2(O)C(=O)CO [hydrocortisone]
plasma ACTH level, quarterly measurement (HPA axis; [10]): undetectable | serum cortisol level, quarterly measurement (HPA axis; [10]): undetectable | ACTH (HPA axis; [11]): 5 pg/mL | Cortisol (HPA axis; [11]): <1 µg/dL | DHEA (HPA axis; [11]): <0.05 ng/mL
